Results as given in article doi:10.1101/2022.11.21.517375v1, “Fragment-Based Hit Discovery via Unsupervised Learning of Fragment-Protein Complexes” (biorxiv, 2022).
Where two headings read alike, the source gives them in different places.

What was measured:
[1] = biological target: T1, SARS-CoV-2 nsp3-Mac1 (HTRF assay) (Severe acute respiratory syndrome coronavirus 2, UniProt P0DTD1); assay: HTRF displacement of ADP-ribose-conjugated biotin peptide; type: binding
T1 construct: gene rep

[2] = biological target: T2, SARS-CoV-2 main protease (Mpro) (Severe acute respiratory syndrome coronavirus 2, UniProt P0DTD1); assay: fluorescence protease assay, fluorogenic peptide, dose response; type: biochemical
T2 construct: gene rep

Mac1 (P43 crystals) = biological target: T3, Mac1 (P43 crystals) (Severe acute respiratory syndrome coronavirus 2, UniProt P0DTD1); assay: X-ray crystallography, crystal soaking, PanDDA; type: binding; conditions: active site; P43 crystals soaked at 10 or 20 mM for 2-[…]
T3 construct: gene rep

CCNc1nc2c(cnn2C)c(=O)[nH]1 [Z1102995175]
% inhibition at 250 μM ([1]; pH 7.0, 25 mM HEPES, 20 mM NaCl, […] protein, 400 nM peptide, room temperature): 24.8%

CCC(CNc1ncnc2[nH]cnc12)NC(=O)CCC1CCCCC1 (racemic) [Z5551425673]
inhibition at 250 µM ([1]; read-out: % inhibition at 250 μM): 30.1%

O=C(NNc1nc2ccccc2[nH]1)c1cc(=O)[nH]c2ccccc12 [WIL-UNI-d4749f31-37]
IC50 ([2]; pH 7.3, 20 mM HEPES, 1.0 mM TCEP, 50 mM NaCl, 5 nM Mpro, 37 nM substrate, 15 min pre-incubation, room temperature, read-out: IC50): 25.8 µM

CC[C@@H](CNc1ncnc2[nH]cnc12)NC(=O)CCC1CCCCC1 [Z5551425673 (S-stereoisomer)]
X-ray crystallography, crystal soaking, PanDDA (Mac1 (P43 crystals)): structure of Z5551425673 (as the S-stereoisomer) bound to the active site

COc1ccc2c(C(=O)NNc3nc4ccccc4[nH]3)cc(=O)[nH]c2c1 [ALP-UNI-ed5cdfd2-1]
IC50 [2]: 19.4 µM
